Biological target: monoclonal antibody Br-3 (IgG1, kappa; hybridoma ATCC deposit)
Test: competition ELISA (c-ELISA), specificity of antibody for halogenated deoxyuridines
Type: binding, mouse (SJL/Jax)
Description: A competition enzyme-linked immunosorbent assay (c-ELISA) wa developed to assess the specificity of the antibody for halogenated deoxyuridines by the method of Stanker, et al. (1986) described previously. The competition ELISA data was normalized using 100% activity as the optical density in wells in which antibody was bound to the solid phase antigen (BSA-hapten) in the absence of any competitor. The test wells, each containing different amounts of competitor, were normalized to the 100% activity wells. Percent inhibition was calculated by subtracting the normalized percent binding activity from 100. A smaller I50 value indicates a higher relative affinity of the antibody for the compound. I50 values were estimated graphically from competition ELISA data. When 50% inhibition could not be attained, the value of the highest level of competitor tested is reported. Competition binding data for antibodies reactive with brominated nucleoside analogs are shown in FIG. 1, and the values represent the averages from at least 12 independent assays.
The concentration of IdUMP which causes a 50% binding inhibition to monoclonal antibody Br-3 is 100 times greater for IdUMP than with BrdUMP.

## O=c1[nH]c(=O)n([C@H]2C[C@H](O)[C@@H](COP(=O)(O)O)O2)cc1F [fluorinated deoxyuridine analog, 5-fluoro-2'-deoxyuridine-5-monophosphate]
Compared with the iodinated analog, FIG. 1
  Br-3 binding (competition ELISA): comparable to that of the iodinated analog

## Cc1cn([C@H]2C[C@H](O)[C@@H](COP(=O)(O)O)O2)c(=O)[nH]c1=O [dTMP, deoxythymidine-5-monophosphate]
50% inhibition not attained at the highest level of competitor tested, read-out: concentration for 50% binding inhibition (I50)
  IC50: > 100 µM

## O=c1[nH]c(=O)n([C@H]2C[C@H](O)[C@@H](COP(=O)(O)O)O2)cc1I [IdUMP, 5-iodo-2'-deoxyuridine-5-monophosphate]
I50 of IdUMP compared with I50 of BrdUMP, FIG. 1, averages of at least 12 assays
  concentration which causes a 50% binding inhibition (I50), relative to BrdUMP: 100 times
